From patent US11292792B2, “Tricyclic CRBN ligands and uses thereof” (Kymera Therapeutics, Inc., priority 2018, dated 2022) come the findings set out here.

pIC50: −log10 of the molar value.

For the assay, the target named is His-tagged CRBN-DDB1 complex (Homo sapiens (Human), UniProt Q96SW2). The experiment in a line: Time-resolved fluorescence resonance energy transfer (TR-FRET) assay, displacement of Cy5-labeled thalidomide. The conditions noted are these: read-out: CRBN HTRF IC50. It counts as binding. As to the method: Equal volumes of His-tagged CRBN-DDB1 complex (56 nM) was mixed with Eu-cryptate labeled Anti-6HIS-monoclonal antibody (50× dilution from the commercial stock solution, Vender: Cisbio, Cat. #61HI2KLA) in a final buffer containing 20 mM HEPES pH 7.0, 150 mM NaCl, 0.005% Tween-20. […] The mixture were incubated at room temperature for 1 hour. FRET signals were measured on an EnVision plate reader (Perkin Elmer) by exciting at 340 nm and recording emission at both 615 nm as no FRET control and 665 nm as the FRET signals with a 60 microsecond delay. FRET efficiency was calculated as the ratio of fluorescent signals at […]. Quantitative loss of FRET efficiency as a function of compound concentrations was fitted by a four-parameter Logistic Function using GraphPad Prism 7.0 and the IC50 values were reported for each compound.
Sequence of His-tagged CRBN-DDB1 complex (Q96SW2 whole entry): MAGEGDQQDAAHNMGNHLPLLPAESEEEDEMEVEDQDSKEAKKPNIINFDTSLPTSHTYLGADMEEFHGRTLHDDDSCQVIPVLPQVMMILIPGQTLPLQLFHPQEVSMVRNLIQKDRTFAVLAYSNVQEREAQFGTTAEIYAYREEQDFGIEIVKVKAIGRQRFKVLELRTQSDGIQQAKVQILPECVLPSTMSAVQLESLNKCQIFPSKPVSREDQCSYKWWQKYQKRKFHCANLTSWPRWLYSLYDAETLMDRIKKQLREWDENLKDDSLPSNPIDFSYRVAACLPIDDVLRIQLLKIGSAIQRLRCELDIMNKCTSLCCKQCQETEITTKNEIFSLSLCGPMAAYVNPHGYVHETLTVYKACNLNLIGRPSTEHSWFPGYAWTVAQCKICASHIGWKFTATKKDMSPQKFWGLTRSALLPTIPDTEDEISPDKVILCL
Sequence of His-tagged CRBN-DDB1 complex (Q16531 whole entry partner): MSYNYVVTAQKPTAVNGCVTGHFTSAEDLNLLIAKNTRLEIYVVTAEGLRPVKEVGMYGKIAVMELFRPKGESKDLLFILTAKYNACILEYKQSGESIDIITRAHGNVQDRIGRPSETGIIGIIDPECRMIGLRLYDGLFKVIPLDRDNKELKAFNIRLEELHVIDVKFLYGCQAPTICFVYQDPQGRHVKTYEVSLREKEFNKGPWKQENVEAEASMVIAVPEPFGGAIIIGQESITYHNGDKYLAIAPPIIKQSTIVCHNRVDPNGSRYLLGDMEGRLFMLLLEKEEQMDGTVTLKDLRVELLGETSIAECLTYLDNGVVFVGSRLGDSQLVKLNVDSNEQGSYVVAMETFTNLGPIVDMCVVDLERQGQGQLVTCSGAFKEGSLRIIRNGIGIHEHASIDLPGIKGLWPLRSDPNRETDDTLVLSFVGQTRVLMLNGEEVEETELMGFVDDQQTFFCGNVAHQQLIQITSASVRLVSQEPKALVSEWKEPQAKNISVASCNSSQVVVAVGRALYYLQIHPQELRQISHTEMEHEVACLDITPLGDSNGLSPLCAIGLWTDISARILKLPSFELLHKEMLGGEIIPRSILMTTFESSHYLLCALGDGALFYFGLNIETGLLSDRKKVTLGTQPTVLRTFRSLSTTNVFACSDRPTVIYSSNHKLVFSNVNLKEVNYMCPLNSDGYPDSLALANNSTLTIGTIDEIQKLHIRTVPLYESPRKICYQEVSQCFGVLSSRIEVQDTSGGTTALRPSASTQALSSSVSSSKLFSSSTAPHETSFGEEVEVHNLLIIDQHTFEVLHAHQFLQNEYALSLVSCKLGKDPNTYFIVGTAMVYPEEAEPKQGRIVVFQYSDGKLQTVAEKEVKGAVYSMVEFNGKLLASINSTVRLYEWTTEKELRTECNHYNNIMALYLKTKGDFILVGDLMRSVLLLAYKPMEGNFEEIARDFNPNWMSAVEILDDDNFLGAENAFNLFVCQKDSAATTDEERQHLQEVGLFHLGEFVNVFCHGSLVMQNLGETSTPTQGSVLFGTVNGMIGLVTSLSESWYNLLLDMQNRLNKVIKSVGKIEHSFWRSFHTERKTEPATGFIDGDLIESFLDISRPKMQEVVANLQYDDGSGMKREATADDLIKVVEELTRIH
The compound numbers correspond to the compound numbers in Table 1.
For `CC(C)(C)OC(=O)NCCOCCNC(=O)NCc1ccc2c(c1)c1cccnc1n2C1CCC(=O)NC1=O` (centres unmarked) [I-37, tert-butyl (2-(2-(3-((9-(2,6-dioxopiperidin-3-yl)-9H-pyrido[2,3-b]indol-6-yl)methyl)ureido)ethoxy)ethyl)carbamate], the pIC50 (commonly −log10 of the IC50, conventionally taken in molar units) was 4.52 to 5.00. Regarding `O=C1CCC(n2c3ccc(CCCOCCOCCO)cc3c3cccnc32)C(=O)N1` (centres unmarked) [I-46], the pIC50 was > 5.00. `O=C1CCC(n2c3cc(Br)ccc3c3cccnc32)C(=O)N1` (centres unmarked) [I-102, 3-3-(7-Bromopyrido[2,3-b]indol-9-yl)piperidine-2,6-dione]: the pIC50 is 4.52 to 5.00. With `CN(CCCOCCCc1ccc2c(c1)c1cccnc1n2C1CCC(=O)NC1=O)C(=O)OC(C)(C)C` (centres unmarked) [I-44], the pIC50 was > 5.00. As for `O=C1CCC(n2c3ccccc3c3cncnc32)C(=O)N1` (centres unmarked) [I-67], the figure is 4.52 to 5.00.

With `CC(C)(C)OC(=O)NCCOCCOCCCc1ccnc2c1c1ccccc1n2C1CCC(=O)NC1=O` (centres unmarked) [I-57], the pIC50 is > 5.00.

Consider `CN(CCCOCC#Cc1ccc2c(c1)c1cccnc1n2C1CCC(=O)NC1=O)C(=O)OC(C)(C)C` (centres unmarked) [I-45], for which the pIC50 is 4.52 to 5.00. As for `O=C1CCC(n2c3cccc(Br)c3c3cccnc32)C(=O)N1` (centres unmarked) [I-30], the figure is > 5.00; as for `O=C1CCC(n2c3ccc(Br)cc3c3ccsc32)C(=O)N1` (centres unmarked) [I-88], > 5.00; as for `CC(C)(C)OC(=O)NCCOCCOCC#Cc1cccc2c1c1cccnc1n2C1CCC(=O)NC1=O` (centres unmarked) [I-61], > 5.00. The same measure for `O=C1CCC(n2c3ccccc3c3ccnc(O)c32)C(=O)N1` (centres unmarked) [I-105]: 4.52 to 5.00; for `O=C1CCC(n2ccn3c4ccccc4nc23)C(=O)N1` (centres unmarked) [I-94]: 4.00 to 4.52; for `O=C1CCC(n2c3ccccc3c3cccnc32)C(=O)N1` (centres unmarked) [I-2, 3-(9H-pyrido[2,3-b]indol-9-yl)piperidine-2,6-dione]: > 5.00.

Take `O=C1CCC(n2c3cccc(C#CCOCCOCCOCc4ccccc4)c3c3cccnc32)C(=O)N1` (centres unmarked) [I-52]: the pIC50 is > 5.00. Consider `CC(C)(C)OC(=O)NC1CCN(CCc2ccc3c(c2)c2cccnc2n3C2CCC(=O)NC2=O)CC1` (centres unmarked) [I-71, tert-butyl (1-(2-(9-(2,6-dioxopiperidin-3-yl)-9H-pyrido[2,3-b]indol-6-yl)ethyl)piperidin-4-yl)carbamate], for which the pIC50 was > 5.00. The same measure for `O=C1CCC(n2c3ccccc3c3ccc(O)nc32)C(=O)N1` (centres unmarked) [I-83, 3-(2-hydroxy-9H-pyrido[2,3-b]indol-9-yl)piperidine-2,6-dione]: > 5.00; for `CC(C)(C)OC(=O)NCCOCCOCC(=O)NCc1ccc2c(c1)c1cccnc1n2C1CCC(=O)NC1=O` (centres unmarked) [I-36, tert-butyl (2-(2-(2-(((9-(2,6-dioxopiperidin-3-yl)-9H-pyrido[2,3-b]indol-6-yl)methyl)amino)-2-oxoethoxy)ethoxy)ethyl)carbamate]: > 5.00.

In the case of `CC(C)(C)OC(=O)NCCOCCOCCCc1ccc2c3ccccc3n(C3CCC(=O)NC3=O)c2n1` (centres unmarked) [I-73], the pIC50 was 4.52 to 5.00. Consider `CC(C)(C)OC(=O)NCCOCCOCC#Cc1ccc2c3ccccc3n(C3CCC(=O)NC3=O)c2n1` (centres unmarked) [I-74], for which the pIC50 was 4.52 to 5.00.

With `O=C1CCC(n2c3c(c4cccnc42)CN(Cc2ccccc2)CC3)C(=O)N1` (centres unmarked) [I-55, 3-(6-benzyl-7,8-dihydro-5H-pyrrolo[2,3-b:4,5-c′]dipyridin-9(6H)-yl)piperidine-2,6-dione], the pIC50 is 4.00 to 4.52. The same measure for `O=C1CCC(n2c3cc(CCCOCCOCCO)ccc3c3cccnc32)C(=O)N1` (centres unmarked) [I-53]: 4.52 to 5.00. For `O=C1CCC(n2c3c(c4cccnc42)CCCC3)C(=O)N1` (centres unmarked) [I-70], the pIC50 is 4.52 to 5.00. As to `O=C1CCC(n2c3ccccc3c3c(Br)csc32)C(=O)N1` (centres unmarked) [I-89, 3-(3-bromo-8H-thieno[2,3-b]indol-8-yl)piperidine-2,6-dione], the pIC50 was > 5.00. With `O=C1CCC(n2c3ccccc3c3cc(CCCOCCOCCO)cnc32)C(=O)N1` (centres unmarked) [I-54, 3-(3-(3-(2-(2-hydroxyethoxy)ethoxy)propyl)-9H-pyrido[2,3-b]indol-9-yl)piperidine-2,6-dione], the pIC50 was 4.52 to 5.00.

`O=C1CCC(n2c3ccc(Br)cc3c3ccc(F)nc32)C(=O)N1` (centres unmarked) [I-92, 3-(6-bromo-2-fluoro-9H-pyrido[2,3-b]indol-9-yl)piperidine-2,6-dione]: the pIC50 was > 5.00. On to `O=C1CCC(n2c3ccccc3c3ncsc32)C(=O)N1` (centres unmarked) [I-87], for which the pIC50 is > 5.00. As to `O=C1CCC(n2c3cc(F)ccc3c3cccnc32)C(=O)N1` (centres unmarked) [I-101], the pIC50 is > 5.00. Consider `O=C1CCC(n2c3cc(Cl)ccc3c3cccnc32)C(=O)N1` (centres unmarked) [I-106, 3-(7-chloro-9H-pyrido[2,3-b]indol-9-yl)piperidine-2,6-dione], for which the pIC50 is 4.52 to 5.00.

`N#Cc1ccc2c(c1)c1cccnc1n2C1CCC(=O)NC1=O` (centres unmarked) [I-32]: the pIC50 is 4.52 to 5.00.
